# Source: patent US20040259806A1 (priority 2001, published 2004)
# Legend:
# IL-2 = IL-2 production by Con A stimulated spleen cells (CTLL-2 assay); format: in vivo, mice; details: 4 days after therapy; Group 7 (0.1 ìg/kg ip) compared to Group 3 (isoniazid control); Con A stimulated spleen cells
# Description: In RPMI-1640, spleen cells were diluted to a concentration of 10^7/ml with 10% fetal calf serum, 2 mM L-glutamine and 80 ìg/ml gentamycin. A 100 ìl cell suspension was added to each well of a 96-well culture plate and cytokine production was induced by Con A at a final concentration of 2.5 ìg/ml. A control well included RPMI-1640. For 24 hours, cells were incubated at 37° C. and humidified in 5% CO2. Following incubation, […] of supernatant was removed from each well and stored at −70° C.
# In order to determine the IL-2 concentration in cell culture supernatants, the CTLL-2 IL-2 dependent cell line was used. CTLL-IL-2 cells were washed twice in RPMI-1640 and counted with a Goriaev hemocytometer. Supernatants were diluted in 96-well culture plates at dilutions of 1:5, 1:15, 1:45 and 1:135 in a volume of 100 il. IL-2 standard dilutions were also prepared. Cells were diluted to 2×10^5/ml in RPMI-1640 with 10% inactivated fetal calf serum, 2 mM L-glutamine, 80 ìg/ml gentamycin. The 100 ìl suspension was added to each well of the culture plate and incubated for 48 h at 37° C. in 5% CO2 humidity. Ten ìl of 5 i Ci/ml ^3H-thymidine was added to each well 16 h before the end of incubation. Following incubation, the cells were harvested on filters through the use of a semi-automated harvester and samples were counted in a liquid scintillation counter.
# peritoneal macrophages = test: Phagocytosis and killing of Saccharomyces cerevisiae by peritoneal macrophages of treated infected mice; format: in vivo
# Description: In order to study phagocytosis, peritoneal macrophages were plated at a concentration of 10^6 cells per Petri dish and media including 10^7 Saccharomyces cerevisiae cells, opsonized by mice serum was added. Results were evaluated using the Mann-Whitney test. Phagocytic activity was calculated after determination of percentage of macrophages involved in phagocytes. The phagocytic index was determined by calculating the average number of yeast phagocytosed per one cell. Killing activity was resolved by the number of yeast digested by macrophages after 1.5 h of incubation. Finally, the killing index was determined as follows: [formula]
# M. bovis 8 = format: in vivo, mice
# spleen cells = test: Spleen cell proliferation (Con A, LPS, tuberculin) from treated infected mice; format: in vivo; details: after 24 days; Group 3 the isoniazid control group
# Description: Spleens from mice were harvested aseptically, homogenized in RPMI-1640 medium (Biolot, Russia) and filtered through two layers of sterile gauze. Erythrocytes were lysed in 0.83% percent ammonium chloride solution after centrifugation of the homogenate. Spleen cells were washed twice with RPMI-1640 with 2 mM L-glutamine and […] gentamycin (Sigma, St. Louis, Mo.), then counted using a Goriaev hemocytometer.
# Spleen cells and thymic cells were isolated as described above. In vitro, thymic cells were diluted to 10^7/ml in RPMI-1640 with 2 mM L-glutamine, 80 ìg/ml gentamycin and 4% heat-inactivated fetal calf serum (Sigma, St. Louis, Mo.). Spleen cells were diluted to 3×10^6/ml in RPMI-1640 with 2 mM L-glutamine, 80 ìg/ml gentamycin and 20% inactivated fetal calf serum. 0.5 ìg/ml Concanavalin A (Con A, Sigma, St. Louis, Mo.) was used to stimulate thymic cell proliferation. For spleen cell proliferation, 0.5 ìg/ml Con A, 10 ìg/ml lipopolysaccharide (Sigma, St. Louis, Mo.), and 50 ìg/ml tuberculin purified protein derivative (PPD) were utilized. The assay was carried out in 96-well plates and cell cultures were incubated for 72 hours, or 96 hours if tuberculin was used, at 37° C. in humidified 5% CO2, then pulsed with 5 ìl Ci/ml ^3H-thymidine overnight (approximately 16 h) and harvested on filters using a semi-automated harvester (Titertek™, Flow Laboratories, Norway). Filters were dried and proliferation calculated by ^3H-thymidine incorporation by counting samples in a liquid scintillation counter (LKB 1217 Racketa, Wallace, Sweden). Data was expressed in impulses per minute.
# [1] = 24 days after end of therapy, Group 7 (0.1 ìg/kg ip) versus Group 3 (isoniazid control)
structure (smiles),measurement,setting,value
"NNC(=O)c1ccncc1 [isoniazid, isonicotinic acid hydrazide, reference compound]",IL-2 production,IL-2,16.6±2.6 U/ml
same,phagocytic killing,"peritoneal macrophages; 24 days after treatment, Group 3 (isoniazid), 178.0 in uninfected mice, p=0.05",62.0 U
same,Phagocytosis,"peritoneal macrophages; 24 days after treatment, isoniazid treatment group",returned to the level seen in uninfected mice
same,phagocytic activity,"peritoneal macrophages; after 4 days, Group 7 (SCV-07 0.1 ìg/kg ip) compared to Group 3 (isoniazid control), p≦0.05, 64.2% in uninfected mice",19.4%
same,killing,"peritoneal macrophages; after 4 days, SCV-07 versus control, p≦0.05",196.4
same,phagocytic activity,"peritoneal macrophages; after 17 days, Group 6 (1.0 ìg/kg ip, 10 injections) versus Group 3 (isoniazid control)",49.8%
same,phagocytic index,"peritoneal macrophages; after 17 days, Group 6 (1.0 ìg/kg ip, 10 injections) versus Group 3, p=0.05",4.91 U
same,growth of M bovis cultured from spleens,M. bovis 8; [1],275±14.1 CFU
same,lung weight index,M. bovis 8; [1],1.07±0.23
same,spleen weight index,M. bovis 8; [1],1.94±0.31
same,increase in body weight,"M. bovis 8; 24 days after end of therapy, Group 7 (SCV-07 0.1 ìg/kg ip, 5 injections, with isoniazid) versus Group 3 (isoniazid control)",20.7%
same,"lung damage index, difference to untreated mice (Group 2)","M. bovis 8; isoniazid alone (Group 3), 10 mg/kg subcutaneous, Day 28 of infection",no significant difference
same,spleen cell proliferative response (Con A and LPS),spleen cells,remained low
